Reference: ChEMBL document CHEMBL1208702, “Use of 2-[(18)F]fluoroethylazide for the Staudinger ligation - Preparation and characterisation of GABA(A) receptor binding 4-quinolones” (Bioorg Med Chem Lett, 2010)

Tests used:
[1] = Biodistribution in iv dosed Sprague-Dawley rats small intestine after 10 mins by gamma counter; format: ADME, organism-based; settings: rat, in vivo
[2] = Biodistribution in iv dosed Sprague-Dawley rats large intestine after 2 mins by gamma counter; format: ADME, organism-based; settings: rat, in vivo
Heart [3] = test: Biodistribution in iv dosed Sprague-Dawley rats heart after 60 mins by gamma counter; format: ADME, organism-based; settings: rat, in vivo, 1 h
Liver [4] = test: Biodistribution in iv dosed Sprague-Dawley rats liver after 60 mins by gamma counter; format: ADME, organism-based; settings: rat, in vivo, 1 h
Liver [5] = test: Biodistribution in iv dosed Sprague-Dawley rats liver after 2 mins by gamma counter; format: ADME, organism-based; settings: rat, in vivo
Liver [6] = test: Biodistribution in iv dosed Sprague-Dawley rats liver after 30 mins by gamma counter; format: ADME, organism-based; settings: rat, in vivo, 0.5 h
Heart [7] = test: Biodistribution in iv dosed Sprague-Dawley rats heart after 10 mins by gamma counter; format: ADME, organism-based; settings: rat, in vivo
[8] = Biodistribution in iv dosed Sprague-Dawley rats stomach after 60 mins by gamma counter; format: ADME, organism-based; settings: rat, in vivo, 1 h
[9] = Biodistribution in iv dosed Sprague-Dawley rats small intestine after 60 mins by gamma counter; format: ADME, organism-based; settings: rat, in vivo, 1 h
[10] = Biodistribution in iv dosed Sprague-Dawley rats bladder and urine after 60 mins by gamma counter; format: ADME, organism-based; settings: rat, in vivo, 1 h
[11] = Drug uptake in Wistar rat brain thalamus/striatum cortex at 0.1 MBq/ml after 60 mins by autoradiographic analysis; format: ADME, tissue-based; settings: in vivo, 1 h
Lung [12] = test: Biodistribution in iv dosed Sprague-Dawley rats lung after 30 mins by gamma counter; format: ADME, organism-based; settings: rat, in vivo, 0.5 h
Heart [13] = test: Biodistribution in iv dosed Sprague-Dawley rats heart after 30 mins by gamma counter; format: ADME, organism-based; settings: rat, in vivo, 0.5 h
[14] = Biodistribution in iv dosed Sprague-Dawley rats small intestine after 2 mins by gamma counter; format: ADME, organism-based; settings: rat, in vivo
Spleen [15] = test: Biodistribution in iv dosed Sprague-Dawley rats spleen after 10 mins by gamma counter; format: ADME, organism-based; settings: rat, in vivo
Heart [16] = test: Biodistribution in iv dosed Sprague-Dawley rats heart after 2 mins by gamma counter; format: ADME, organism-based; settings: rat, in vivo
[17] = Biodistribution in iv dosed Sprague-Dawley rats bladder and urine after 10 mins by gamma counter; format: ADME, organism-based; settings: rat, in vivo
Spleen [18] = test: Biodistribution in iv dosed Sprague-Dawley rats spleen after 2 mins by gamma counter; format: ADME, organism-based; settings: rat, in vivo
[19] = Biodistribution in iv dosed Sprague-Dawley rats stomach after 30 mins by gamma counter; format: ADME, organism-based; settings: rat, in vivo, 0.5 h
Blood [20] = test: Biodistribution in iv dosed Sprague-Dawley rats blood after 0.5 min by gamma counter; format: ADME, organism-based; settings: rat, in vivo
[21] = Biodistribution in iv dosed Sprague-Dawley rats fat after 30 mins by gamma counter; format: ADME, organism-based, Adipose tissue; settings: rat, in vivo, 0.5 h
[22] = Biodistribution in iv dosed Sprague-Dawley rats stomach after 0.5 min by gamma counter; format: ADME, organism-based; settings: rat, in vivo
[23] = Biodistribution in iv dosed Sprague-Dawley rats bladder and urine after 0.5 min by gamma counter; format: ADME, organism-based; settings: rat, in vivo
Blood [24] = test: Biodistribution in iv dosed Sprague-Dawley rats blood after 2 mins by gamma counter; format: ADME, organism-based; settings: rat, in vivo
Spleen [25] = test: Biodistribution in iv dosed Sprague-Dawley rats spleen after 60 mins by gamma counter; format: ADME, organism-based; settings: rat, in vivo, 1 h
Muscle tissue [26] = test: Biodistribution in iv dosed Sprague-Dawley rats muscle after 30 mins by gamma counter; format: ADME, organism-based; settings: rat, in vivo, 0.5 h
Blood [27] = test: Biodistribution in iv dosed Sprague-Dawley rats blood after 60 mins by gamma counter; format: ADME, organism-based; settings: rat, in vivo, 1 h
[28] = Drug uptake in low GABAA expression areas of Wistar rat brain prefrontal cortex at 0.1 MBq/ml after 60 mins by autoradiographic analysis; format: ADME, tissue-based; settings: in vivo, 1 h
Blood [29] = test: Biodistribution in iv dosed Sprague-Dawley rats blood after 30 mins by gamma counter; format: ADME, organism-based; settings: rat, in vivo, 0.5 h
Muscle tissue [30] = test: Biodistribution in iv dosed Sprague-Dawley rats muscle after 10 mins by gamma counter; format: ADME, organism-based; settings: rat, in vivo
[31] = Biodistribution in iv dosed Sprague-Dawley rats fat after 0.5 min by gamma counter; format: ADME, organism-based, Adipose tissue; settings: rat, in vivo
Heart [32] = test: Biodistribution in iv dosed Sprague-Dawley rats heart after 0.5 min by gamma counter; format: ADME, organism-based; settings: rat, in vivo
[33] = Drug uptake in high GABAA expression areas of Wistar rat brain prefrontal cortex at 0.1 MBq/ml after 60 mins by autoradiographic analysis; format: ADME, tissue-based; settings: in vivo, 1 h
[34] = Biodistribution in iv dosed Sprague-Dawley rats fat after 10 mins by gamma counter; format: ADME, organism-based, Adipose tissue; settings: rat, in vivo
[35] = Biodistribution in iv dosed Sprague-Dawley rats stomach after 10 mins by gamma counter; format: ADME, organism-based; settings: rat, in vivo
[36] = Biodistribution in iv dosed Sprague-Dawley rats fat after 60 mins by gamma counter; format: ADME, organism-based, Adipose tissue; settings: rat, in vivo, 1 h
[37] = Biodistribution in iv dosed Sprague-Dawley rats fat after 2 mins by gamma counter; format: ADME, organism-based, Adipose tissue; settings: rat, in vivo
Lung [38] = test: Biodistribution in iv dosed Sprague-Dawley rats lung after 10 mins by gamma counter; format: ADME, organism-based; settings: rat, in vivo

## O=C(NCC[18F])c1c[nH]c2ccc(Cc3ccccc3)cc2c1=O
[1]
  Drug uptake: 24.5 %ID
[2]
  Drug uptake: 1.3 %ID
Heart [3]
  Drug uptake: 0.1 %ID
Liver [4]
  Drug uptake: 4.8 %ID
Liver [5]
  Drug uptake: 28.5 %ID
Liver [6]
  Drug uptake: 18.7 %ID
Heart [7]
  Drug uptake: 0.3 %ID
[8]
  Drug uptake: 0.2 %ID
[9]
  Drug uptake: 74.5 %ID
[10]
  Drug uptake: 7.3 %ID
[11]
  Drug uptake: 60%
Lung [12]
  Drug uptake: 0.4 %ID
Heart [13]
  Drug uptake: 0.2 %ID
[14]
  Drug uptake: 7 %ID
Spleen [15]
  Drug uptake: 0.2 %ID
Heart [16]
  Drug uptake: 1.1 %ID
[17]
  Drug uptake: 0.8 %ID
Spleen [18]
  Drug uptake: 0.3 %ID
[19]
  Drug uptake: 0.5 %ID
Blood [20]
  Drug uptake: 8.7 %ID
[21]
  Drug uptake: 1.7 %ID
[22]
  Drug uptake: 0.8 %ID
[23]
  Drug uptake: 0.2 %ID
Blood [24]
  Drug uptake: 4.2 %ID
Spleen [25]
  Drug uptake: 0 %ID
Muscle tissue [26]
  Drug uptake: 16.5 %ID
Blood [27]
  Drug uptake: 0.7 %ID
[28]
  Drug uptake: 76%
Blood [29]
  Drug uptake: 1.5 %ID
Muscle tissue [30]
  Drug uptake: 27.2 %ID
[31]
  Drug uptake: 0.6 %ID
Heart [32]
  Drug uptake: 2 %ID
[33]
  Drug uptake: 78%
[34]
  Drug uptake: 1.8 %ID
[35]
  Drug uptake: 1 %ID
[36]
  Drug uptake: 0.3 %ID
[37]
  Drug uptake: 1.8 %ID
Lung [38]
  Drug uptake: 0.6 %ID
